Test system: naïve rats

CN1CC[C@]23c4c5ccc(O)c4O[C@H]2[C@@H](O)C=C[C@H]3[C@H]1C5 [morphine]
percent of the maximal pain relief effect (morphine ED20 dose 2.8 μmol/kg s.c. alone (FIG. 1)): 20%
pain relief from a noxious thermal stimulus using the tail flick test (morphine single bolus 10 μmol/kg s.c., at one hour, naïve rats (FIG. 1)): near maximal pain relief
ED20 of morphine (antinociception, tail flick) (s.c., naïve rats): ~2.8 µmol/kg
peak levels of antinociception, % of the maximum possible effect (single s.c. bolus administered alone: 2 at 0.04 nmol/kg, morphine at 2.8 μmol/kg): 21 % NPE
